From patent US20030224422A1, “Pre-and post therapy gene expression profiling to identify drug targets” (St. Jude Children's Research Hospital, Inc., priority 2002, published 2003)

Tested on: bone marrow leukemic blasts obtained from children with ALL
Experiment: Oligonucleotide microarray (Affymetrix HG-U95A) fold-change in gene expression, post-treatment vs diagnosis, in patients in vivo
Parameters: species or system human
Details: for number of genes that were down-regulated after single agent / number of genes that were up-regulated (increased) after single agent: changed by >50% in over 70% of patients; for number of genes that changed expression by at least 50%: in over 70% of patients treated
Description: To elucidate genomic determinants of leukemia response to chemotherapy, oligonucleotide microarrays (Affymetrix® HG-U95A GeneChip) were used to analyze expression of approximately 9,600 human genes in bone marrow leukemic blasts obtained from children with ALL, at diagnosis and one day post-treatment with mercaptopurine (1 gm/^2 IV) or methotrexate (MTX) given alone (1 gm/m^2 IV), or mercaptopurine (6-MP) in combination with either low-dose MTX [180 mg/m^2 orally] or high-dose MTX [[…]]). A stratified (immunophenotype, DNA ploidy) randomization was used to assign treatment, and the fold-change in gene expression (post-treatment to diagnosis) was computed for 60 patients. Using linear discriminate analysis with variance (LDAV) genes that most discriminated among treatments were selected based on expression changes (fold-change from diagnosis to post-treatment) or based on post-treatment expression levels alone. […] Leave-one-out cross-validation using support-vector-machine (SVM), based on the 120 most discriminating genes, correctly classified 60 out of 60 patients (100%) based on fold-change versus 58 out of 60 (96.7%) using only post-treatment expression profiles. The smallest number of genes for discrimination among treatments was 120 using fold-change, which included genes involved in cellular processes such as apoptosis, cell cycle control and stress response. Together, these in vivo data reveal unique, treatment-specific changes in gene expression in primary leukemia cells, establishing that changes in expression differ according to the specific medication, dosage and combination given. These findings provide new insights to cancer cell responses to chemotherapy and can be used to illuminate mechanisms of leukemia resistance and identify novel targets to augment existing treatment modalities.
Primary leukemia cells. This study included 60 patients with ALL enrolled on St. Jude Children's Research Hospital Total Therapy Studies XIIIB and XV. Bone marrow samples were obtained at diagnosis (pre-treatment) and one day post-treatment with mercaptopurine (6-MP) or methotrexate (MTX) given alone, or mercaptopurine in combination with either low-dose MTX (LDMTX/6-MP) or high-dose MTX (HDMTX/6-MP). A stratified (immunophenotype, DNA ploidy) randomization was used to assign treatment. Total RNA was extracted from cryopreserved mononuclear cell suspensions with TriReagent (MRC, Cincinnati, Ohio).
Mircoarray analysis. High quality RNA was hybridized to Affymetrix HG-U95A GeneChipe (12,600 probe sets, ˜9,600 human genes) according to the manufacturers protocol (Affymetrix, Santa Clara, Calif.). Scaled gene expression values for pre-treatment, post-treatment and fold-change (post-treatment vs. pre-treatment ratio) were calculated using Affymetrix Microarray Suite® (MAS) 5.0.
Gene expression data analysis. Analysis was done on fold-change and on post-treatment expression. The data were log-transformed and probe sets were filtered out if “absent” in all 120 arrays or if “no change” in all 60 fold-change ratios. Principal component analysis (PCA) and 2D-hierarchical clustering was performed using GeneMath 1.5 (AppliedMaths, Belgium). We applied supervised methods to find the most discriminating genes, including Linear Discriminant Analysis with Variance (LDAV) (GeneMaths) and ANOVA. Probe sets were ranked according to their discriminating power. To establish that these genes could classify treatments and to find significant genes, leave-one-out cross-validation was performed by support vector machine (SVM) with the top ranked probe sets. […] The p-value is defined as the probability of observing a misclassification rate less or equal to that in the experimental data. 250 permutations were performed. To distinguish one treatment from the other treatments, distinction calculation (Spotfire 6.3, Somerville, Mass.) was performed for each probe set. Permutations (n=1000) were performed to obtain the p-values. […]

## CN(Cc1cnc2nc(N)nc(N)c2n1)c1ccc(C(=O)N[C@@H](CCC(=O)O)C(=O)O)cc1 [HDMTX, Methotrexate]
HDMTX 24 h vs 4 h infusion, data pooled
  difference in gene expression between infusion for 24 h and infusion for 4 h: No difference
  number of genes that were down-regulated after single agent: 59 genes
  number of genes that were up-regulated (increased) after single agent: 38 genes
  number of genes that changed expression by at least 50%: 97 genes

## S=c1nc[nH]c2nc[nH]c12 [MP, Mercaptopurine]
  number of genes that were down-regulated after single agent: 40 genes
  number of genes that were up-regulated (increased) after single agent: 158 genes
  number of genes that changed expression by at least 50%: 197 genes
